For experiment [1], the species on record is Oryctolagus cuniculus. The experiment is described as follows: Positive inotropic activity in perfused beating rabbit atrium assessed as increase in stroke volume at 30 umol/l relative to control. The format is functional, tissue-based. Conditions: Cardiac atrium.
A further experiment has as its system Heart. Kind of experiment: Positive inotropic activity in rabbit heart assessed as increase in left atrium stroke volume at 3 X 10^-5 M. The format is functional, Oryctolagus cuniculus, Cardiac atrium.
The species named for experiment [2] is Oryctolagus cuniculus. The experiment is described as follows: Positive inotropic activity in perfused rabbit atrium assessed as increase in stroke volume at 1 X 10^-5 to 10^-4 M relative to control. To be noted: Cardiac atrium.
The species entered for experiment [3] is Oryctolagus cuniculus. Kind of experiment: Positive inotropic activity in perfused rabbit atrium assessed as increase in stroke volume at 30 umol/l in presence of adenylate cyclase activator forskolin relative to control. It counts as functional, tissue-based. To be noted: Cardiac atrium.
The species named for experiment [4] is Oryctolagus cuniculus. Kind of experiment: Positive inotropic activity in perfused rabbit atrium assessed as increase in stroke volume at 30 umol/l in presence of L-type Ca2+ channel blocker nifedipine relative to control. To be noted: Cardiac atrium. It counts as functional, tissue-based.
The species named for experiment [5] is Oryctolagus cuniculus. Kind of experiment: Positive inotropic activity in perfused rabbit atrium assessed as increase in stroke volume at 30 umol/l in presence of PKA inhibitor H-89 relative to control. Conditions: Cardiac atrium. The format is functional, tissue-based.
Where [6] appears, read: Oryctolagus cuniculus, Cardiac atrium.

The source made the active and inactive calls. The rule behind the calls is not given here.

As for `O=C(c1ccc(Br)cc1)N1CCN(c2nn3nnnc3c3ccccc23)CC1`, the outcome in the experiment listed under Oryctolagus cuniculus [1] was Active. Also, the Activity with Heart is reported as 7.49%.
`O=C(/C=C/c1ccc(F)cc1)N1CCN(c2nn3nnnc3c3ccccc23)CC1`: the outcome with Heart (setting [6]) was inactive.
Turning to `O=C(/C=C/c1cccc(Cl)c1)N1CCN(c2nn3nnnc3c3ccccc23)CC1`, the outcome with Heart (setting [6]) was inactive.
For `Cc1ccc(C(=O)N2CCN(c3nn4nnnc4c4ccccc34)CC2)cc1`, in the experiment listed under Oryctolagus cuniculus [1], the result was Active. In addition, the Activity in the experiment with Heart is 13.46%.
Turning to `COc1ccc(CN2CCN(c3nn4nnnc4c4ccccc34)CC2)cc1`, the Activity in the experiment with Heart amounted to 12.02%.
Turning to `COc1cccc(C(=O)N2CCN(c3nn4nnnc4c4ccccc34)CC2)c1`, in the experiment on Heart, the Activity is 1.94%.
With `Cc1[nH]c(=O)c(C#N)cc1-c1ccncc1` [MILRINONE], the Activity in the experiment with Heart amounted to 2.46%.
Take `O=C(/C=C/c1ccc(Br)cc1)N1CCN(c2nn3nnnc3c3ccccc23)CC1`: the outcome with Heart (setting [6]) was inactive.
For `O=C(/C=C/c1ccc(Cl)cc1)N1CCN(c2nn3cnnc3c3ccccc23)CC1`, the outcome in the experiment with Heart (setting [6]) was inactive.
For the compound `O=C(c1cccc(Br)c1)N1CCN(c2nn3nnnc3c3ccccc23)CC1`, the outcome in the experiment with Heart (setting [6]) was inactive.
On to `COc1cccc(C(=O)N2CCN(c3nn4cnnc4c4ccccc34)CC2)c1`, for which the Activity in the experiment on Heart worked out at 0.95%.
Consider `Cc1ccc(/C=C/C(=O)N2CCN(c3nn4cnnc4c4ccccc34)CC2)cc1`, for which the result in the experiment listed under Oryctolagus cuniculus [2] and in the experiment listed under Oryctolagus cuniculus [1] was Active. The Activity with Heart was 14.87%.
In the case of `COc1cccc(/C=C/C(=O)N2CCN(c3nn4cnnc4c4ccccc34)CC2)c1`, the outcome in the experiment listed under Oryctolagus cuniculus [1] was Active. In addition, the Activity in the experiment on Heart is 4.13%.
On the same counts, the results for `O=C(c1ccc(Cl)cc1)N1CCN(c2nn3cnnc3c3ccccc23)CC1` are “Active” and 13.33%.
On the same counts, the results for `O=C(/C=C/c1ccccc1)N1CCN(c2nn3nnnc3c3ccccc23)CC1` are “Active” and 8.09%.
Turning to `O=C(/C=C/c1ccc(Cl)cc1)N1CCN(c2nn3nnnc3c3ccccc23)CC1`, the result in the experiment on Heart (setting [6]) was inactive.
With `O=C(c1ccc(F)cc1)N1CCN(c2nn3nnnc3c3ccccc23)CC1`, the outcome in the experiment filed under Oryctolagus cuniculus [1] was Active. Further, the Activity in the experiment with Heart was determined as 4.73%.
Take `O=C(c1ccc(F)cc1)N1CCN(c2nn3cnnc3c3ccccc23)CC1`: the outcome in the experiment listed under Oryctolagus cuniculus [1] was Active. Moreover, the Activity in the experiment with Heart worked out at 2.91%.
Consider `O=C(c1ccc(Br)cc1)N1CCN(c2nn3cnnc3c3ccccc23)CC1`, for which the outcome in the experiment listed under Oryctolagus cuniculus [1] was Active. For the same compound, in the experiment on Heart, the Activity worked out at 3.65%.
In the case of `O=C(c1ccccc1)N1CCN(c2nn3nnnc3c3ccccc23)CC1`, the result with Heart (setting [6]) was inactive.
On to `O=C(/C=C/c1cccc(Cl)c1)N1CCN(c2nn3cnnc3c3ccccc23)CC1`, for which the result in the experiment with Heart (setting [6]) was inactive.
For `COc1cccc(/C=C/C(=O)N2CCN(c3nn4nnnc4c4ccccc34)CC2)c1`, in the experiment filed under Oryctolagus cuniculus [1], the outcome was Active. Also, the Activity in the experiment with Heart was 5.35%.
Consider `COc1ccc(C(=O)N2CCN(c3nn4cnnc4c4ccccc34)CC2)cc1`, for which the outcome in the experiment filed under Oryctolagus cuniculus [1] was Active. In addition, the Activity with Heart is 3.68%.
In the case of `O=C(c1cccc(Cl)c1)N1CCN(c2nn3cnnc3c3ccccc23)CC1`, in the experiment filed under Oryctolagus cuniculus [1], the outcome was Active. In addition, the Activity in the experiment on Heart came out at 2.56%.
With `O=C(/C=C/c1ccc(F)cc1)N1CCN(c2nn3cnnc3c3ccccc23)CC1`, the outcome in the experiment on Heart (setting [6]) was inactive.
On to `O=C(c1ccc(Cl)cc1)N1CCN(c2nn3nnnc3c3ccccc23)CC1`, for which the Activity with Heart came to 2.05%.
Turning to `COc1ccc(C(=O)N2CCN(c3nn4nnnc4c4ccccc34)CC2)cc1`, the result in the experiment filed under Oryctolagus cuniculus [1] was Active. For the same compound, the Activity with Heart is 9.39%.
As to `Cc1ccc(/C=C/C(=O)N2CCN(c3nn4nnnc4c4ccccc34)CC2)cc1`, the outcome in the experiment listed under Oryctolagus cuniculus [1] was Active. In the experiment with Heart, the Activity is 2.74%.
Take `O=C(/C=C/c1ccc(Br)cc1)N1CCN(c2nn3cnnc3c3ccccc23)CC1`: in the experiment with Heart (setting [6]), the result was inactive.
As for `O=C(/C=C/c1ccccc1)N1CCN(c2nn3cnnc3c3ccccc23)CC1`, the result with Heart (setting [6]) was inactive.
On the same count and under the same terms, the same measure for `O=C(c1ccccc1)N1CCN(c2nn3cnnc3c3ccccc23)CC1`: “inactive”.
As for `O=C(c1cccc(Br)c1)N1CCN(c2nn3cnnc3c3ccccc23)CC1`, in the experiment filed under Oryctolagus cuniculus [1], the result was Active. Moreover, the Activity with Heart amounted to 8.49%.
As for `O=C(/C=C/c1cccc(Br)c1)N1CCN(c2nn3cnnc3c3ccccc23)CC1`, the outcome in the experiment on Heart (setting [6]) was inactive.
Regarding `O=C(c1cccc(Cl)c1)N1CCN(c2nn3nnnc3c3ccccc23)CC1`, in the experiment with Heart, the Activity turned out to be 0.23%.
As for `O=C(/C=C/c1cccc(Br)c1)N1CCN(c2nn3nnnc3c3ccccc23)CC1`, the result in the experiment on Heart (setting [6]) was inactive.
For the compound `Cc1ccc(C(=O)N2CCN(c3nn4cnnc4c4ccccc34)CC2)cc1`, the outcome in the experiment filed under Oryctolagus cuniculus [3], in the experiment listed under Oryctolagus cuniculus [2] and in the experiment listed under Oryctolagus cuniculus [1] was Active. In addition, in the experiment on Heart, the Activity was 19.15%. Further, the outcome in the experiment listed under Oryctolagus cuniculus [4] and in the experiment filed under Oryctolagus cuniculus [5] was inactive.

Values taken from ChEMBL document CHEMBL3232771, “Synthesis and positive inotropic evaluation of [1,2,4]triazolo[3,4-a]phthalazine and tetrazolo[5,1-a]phthalazine derivatives bearing substituted piperazine moieties” (2014).
